Data as given in patent publication US20260345582A1, “PRODRUG FOR ANTI-AGING RELATED DISEASES AND USE METHOD THEREOF” (Beijing SunCell Bio-Medical Co., Ltd., priority 2022, published 2026).

Experiments:
[1] = liver microsomal metabolic stability, mouse
Procedure: (§1) Hepatic Microsomal Metabolic Stability
(§2) A13bGa1 was co-incubated with the mouse, rat, canine, monkey and human […] and the incubation medium at a final drug concentration of 1 μM in the incubation system for 60 minutes. Samples were taken and analyzed at time points 0, 15, 30, 45 and 60 minutes during the incubation. The reaction was terminated by adding an amount of acetonitrile solution containing the internal standard. […] The residual percentage, half-life, intrinsic clearance, amplified clearance, hepatic clearance and hepatic extraction ratio were determined. The entire experiment was performed in triplicate. All data calculations were performed by Microsoft Excel software. Peak areas were detected by extracting the ionic spectrum. The in vitro half-life (t1/2) of the parent compound was detected by fitting the natural logarithm of the percentage elimination of the parent compound linearly to time.
(§3) The in vitro intrinsic clearance (in μL/min/mg protein) was calculated using the following equation: in vitro CLint=kV/N
(§4) The amplified clearance (in mL/min/kg) was calculated using the following equation: Amplified CLint=kV/N×the amplification factor
(§5) The hepatic clearance (in mL/min/kg) was calculated using the following equation: The predicted hepatic CLH=(Q×Fu/RB×the amplified CLint)/(Q+Fu/RB×the amplified CLint) • V=the incubation volume per well (0.2 mL); • N=the total amount of protein (mg) • Q=the hepatic blood flow (mL/min/kg) • Fu=the plasma free rate (assumed to be 1) • RB=the whole blood partition coefficient (assumed to be 1)
(§6) The hepatic uptake rate was calculated using the following equation:
(§7) The hepatic extraction ratio (ER)=(the predicted hepatic CLH)/Q

[2] = plasma metabolic stability, mouse; assay type: in vitro ADME; conditions: 120 min
Procedure: Plasma Metabolic Stability
Termination of the reaction was accomplished by the addition of 3× volume of acetonitrile and centrifugation at 16000 g for 20 minutes. The supernatant was taken for a LC-MS/MS analysis. The chromatographic column: Waters XSelect HSS T3; the flow rate: 500 μL/min; the eluent: A, water (0.1% formic acid); B, acetonitrile (0.1% formic acid); the gradient elution: 0-1.5 min, 5% B, 1.5-9 min, 5%-80% B, 9-12 min, 80%-100% B, 12-14 min, 100% B, 14-14.3 min, 100%-5% B, 14.3-15 min, 5% B.

[3] = liver microsomal metabolic stability, canine
Procedure: as §1, §2, §3, §4, §5, §6, §7

[4] = system: mouse model of oxygen-induced retinopathy; assay: oxygen-induced retinopathy, retinal microvessel staining analysis; assay type: in vivo, C57BL6/J mice; conditions: single intravitreal injection
Procedure: A. Modelling of a mouse model of oxygen-induced retinopathy, and the schematic diagram of treatment. C57BL6/J mice were cultured in 75% hyperoxia for 5 consecutive days starting from postnatal day 7, and treated by a single intravitreal administration of the drug on postnatal day 12, and then transferred to normal air atmosphere until day 17 for retinal sampling and analysis. P0, P7, P12, and P17 in the panel represent mice on postnatal days 0, 7, 12, and 17, respectively.
B. Representative diagram of the reduction of pathological avascular areas in the mouse retina after the treatment by intravitreal injection of A13bGa1. Mouse retinal microvessels were labelled by IB4 staining for the central avascular area analysis, wherein the green fluorescence represents the IB4-labelled microvascular areas, and the avascular areas are circled with white markers in the panel.
C. Statistical results of the retina pathological avascular areas after treatment of different groups of mice. […] The statistics in the panel are the quantitative results of the ischemic areas in the retinas of each sample compared with that of the VEH control group after the areas were taken as the means, and the error bar is a standard deviation. […]

In the case of `Cc1c(-c2ccc(N3CCc4cccc(C(=O)Nc5nc6ccccc6s5)c4C3)nc2C(=O)OCc2ccc(O[C@@H]3O[C@H](CO)[C@H](O)[C@H](O)[C@H]3O)c([N+](=O)[O-])c2)cnn1CC12CC3CC(CC(C3)C1)C2` [Compound A13bGa1], the “The hepatic extraction ratio (E)” value [1] is reported as 0.40, the “The intrinsic clearance in vitro Clint” value ([1]; 1 μM, 60 min) is reported as 13.79 μL/min/mg protein and the “The predicted intrinsic hepatic clearance Clint” value ([1]; Fu and RB assumed to be 1) is reported as 36.24 mL/min/kg. The CLint scaled at 1 µM ([1]; microsomes) was 60.7 mL/min/kg, the half-life at 1 h, 1 µM ([1]; microsomes) was 1.68 h and the metabolised at 2 h, 10 µM ([2]; 10 μM prodrug, read-out: The peak area after normalisation at minute 120, oxidative dehydrogenation metabolite) was 0.04%. For the same molecule, the remaining at 2 h, 10 µM ([2]; 10 μM, read-out: The peak area after normalisation at minute 120, initial drug) was 100%, the “The hepatic extraction ratio (E)” value ([3]; canine) was 0.70 and the “The intrinsic clearance in vitro Clint” value ([3]; canine, 1 μM, 60 min) was 29.31 μL/min/mg protein. The “The predicted intrinsic hepatic clearance Clint” value ([3]; canine, Fu and RB assumed to be 1) was 21.72 mL/min/kg, the CLint scaled at 1 µM ([3]; dog, microsomes) was 73.1 mL/min/kg and the half-life at 1 h, 1 µM ([3]; dog, microsomes) was 0.788 h. The retinal oxygen-induced microangiopathy [4] was “effectively improve the retinal oxygen-induced microangiopathy” and the “area of the abnormal neovascular area in the retinas” value ([4]; 50 ng and 100 ng, FIGS. 6D and 6E) was “significantly reduced”.
